Assay results from patent US9540615B2, “Combined chemical and genetic approaches for generation of induced pluripotent stem cells” (The Scripps Research Institute, priority 2008, dated 2017).
Entries after “also recorded” stand apart in the source; their conditions may differ. One block for each compound: values may come before it.

Columns and labels:
mES R1 cells = assay: Proliferation assay; assay type: cell-based, mouse; details: 2 μM BayK, 1 μM BIX or both; 15, 24 and 48 hours; compared to DMSO, n=3
Method: mES R1 cells were plated onto gelatin-coated 6-well plates at a density of 2×10^5 cells/well in complete mES cell media. Upon cell attachment, app. 12 hours, the cells were treated either with DMSO, 1 μM BIX, 2 μM BayK, and a combination of both, in triplicate. At 15, 24 and 48 hours, the cells were detached using trypsin, and counted using a hemocytometer. Trypan blue (Sigma-Aldrich, St. Louis, Mo.) was used for dead cell exclusion.

[1] = test system: Sox2 expression in OG2 MEFs; assay: Assessment of SOX2 expression after compound treatment (semi-quantitative RT-PCR); assay type: cell-based, mouse; details: 2 μM BayK alone or with 1 μM BIX, 6 days
Method: OG2^+/−/ROSA26^+/− MEFs were plated onto 6-well plate at a density of 3.4×10^4 cells per well. On the following day, the cells were treated with DMSO, 1 μM BIX, 2 μM BayK, and a combination of both, in triplicate, for 6 days. The media was refreshed at day 3. RNA from each well was then isolated using the RNAeasy Mini Kit (Quiagen). Reverse transcription of the RNA was performed using the iScript™cDNA Synthesis Kit (BioRad, Hercules, Calif.). Amplification of endogenous Sox2 was done using primers previously published (Takahashi, K., Okita, K., Nakagawa, M., and Yamanaka, S. (2007). Induction of pluripotent stem cells from fibroblast cultures. Nat Protoc 2, 3081-3089; Takahashi, K., and Yamanaka, S. (2006). Induction of pluripotent stem cells from mouse embryonic and adult fibroblast cultures by defined factors. Cell 126, 663-676) with Platinum PCR SuperMix (Invitrogen) on a Mastercycler® ep gradient PCR machine (Eppendorf).

[2] = test system: OG2 MEFs transduced with OK (Oct4 and Klf4); assay: iPSC generation from OK-transduced OG2 MEFs (GFP+ colonies), including second synergist screen with BIX; assay type: cell-based, mouse; details: for effect on reprogramming of OK transduced MEFs in the second screen: in the presence of 1 μM BIX, FIG. 3: 0.04 μM RG108, 2 μM BayK; for outcome in second synergist screen: 1 μM BIX plus individual compound at 0.5-2 μM, not further followed up
Method: Primary 129S2/SvPasCrlf (primary screen) or ROSA26^+/−/OG2^+/− (secondary screen) MEFs were plated onto Matrigel (1:50; BD Biosciences, Bedford, Mass.) coated dishes at a density of 3.5×10^4 cells per well of a 6-well plate. Twenty-four hours later, these cells were transduced overnight with defined retroviruses at 37° C., 5% CO2. Twelve to fourteen hours later, the media on the transduced cells was changed to mESC medium [Knockout DMEM, 10% ES-qualified FBS, 10% Knockout serum replacement, 1% Glutamax, 1% Non-essential amino acids, penicillin/streptomycin, 0.1 mM β-mercaptoethanol, 1% EmbryoMax ESC Qualified Nucleosides (Millipore, Temecula, Calif.), and 10^3 U/ml LIF (Millipore)] (all products were from Invitrogen, Carlsbad, Calif., except where mentioned). On that same day, individual small molecules from our known drug collection were added to the cells at a range between 0.5 and 2 μM. Compound treatment was continued for 10-14 days; the cells were fixed and stained on day 14-21 using a standard ALP detection kit (Millipore). For the second screen, 1 μM BIX was added to the mESC medium 1 day after transduction. Five days later, in addition to 1 μM BIX, individual small molecule from the known drug collection was added to each well, at a range between 0.5 and 2 μM. Mouse ESC media with defined small molecules was refreshed every three days until colonies with a similar morphology to mESCs were observed, which was usually between 14-21 days after transduction. […] Further characterization studies and repeats were carried either on primary 129S2/SvPasCrlf or ROSA26^+/−/OG2^+/− MEFs. When ROSA26^+/−/OG2^+/− MEFs were used, the iPSC colonies could also be identified through GFP expression, as a marker of Oct4 expression. Once iPSC colonies were identified, they were picked for expansion on MEF feeder cells in mESC medium.

[3] = test system: 129 MEFs transduced with OK (Oct4 and Klf4); assay: Screen for iPSC generation from OK-transduced 129 MEFs (ESC-like colony morphology, ALP staining); assay type: cell-based, mouse; details: in the absence of BIX
Method: Unmodified MEFs derived from E13-14 embryos of the 129 mice were used for the initial screen. MEFs were plated on Matrigel at 3.5×10^4 cells/well of a 6-well plate and transduced with OK (retroviral vectors expressing Oct4 and Klf4) alone. Within 14-21 days, treated cells were assessed for the appearance of colonies that had the characteristic embryonic stem cell (ESC), colony morphology and were positive for the pluripotency marker alkaline phosphatase (ALP). Such OK-transduced cells generated only a few small non-compact colonies, which were weakly positive for ALP expression. These colonies initially appeared within 21 days after viral transduction and were difficult to expand. Therefore, such assay system offered a clean background for the identification of small molecules having desirable reprogramming inducing activity. Using this system, compounds from a library of around 2000 known small molecules (see Experimental Procedures below) were screened and were identified as hits when they induced the appearance of ESC colonies that were strongly positive for ALP within 14-21 days after treatment. This image-based method provided a more accurate assessment of reprogramming as compared to homogenous reporter-based assay. BIX appeared to have the strongest effect with reproducible induction of more than 1-2 compact ESC-like colonies with high ALP expression. We observed that when MEFs were treated with BIX after OK viral transduction, compact colonies with strong ALP expression could be readily detected within approximately 14-21 days. These cells were also positive for Nanog, Oct4 and SSEA-1 expression. […] However, the reprogramming efficiency in MEFs transduced with OK and treated with BIX was still low, about 2 colonies/3.5×10^4 cells, in comparison to the four factor-induced reprogramming of MEFs or the OK/BIX NPC reprogramming (Shi, Y. et al., Cell Stem Cell, 2:525-528 (2008)). Therefore, we conducted a second screen using a similar protocol, but where BIX was added to the basal media after OK viral transduction. This provided a more permissive platform to identify new small molecules that could further improve reprogramming efficiency. More importantly, this second screen could facilitate discovery of small molecules that impact reprogramming in a more specific manner, for example by acting on signal transduction pathways rather than on histone or DNA modifying enzymes. In this second screen, we again assayed the library of around 2000 known small molecules (see Experimental Procedures), and confirmed two compounds that were able to act in a synergistic manner with BIX to improve reprogramming based on the criteria of the screen. […] Therefore, RG108 was not pursued further for this study. […]

cellular reprogramming = assay: Enhancement of cellular reprogramming by nuclear receptor ligands; assay type: cell-based
Mouse fibroblasts = assay: Induction of pluripotency by incubation of fibroblasts with poly-Arg transcription factor proteins; assay type: cell-based; details: agent added during protein-induced reprogramming
Method: Mouse fibroblasts were grown in mESC medium supplemented with 8 μg/ml of either Oct4/Sox2/Klf4 or Oct4/Sox2/Klf4/Myc (all proteins comprising poly-Arg as described above) for 6-8 hours, washed, and incubated for 2-3 days in mESC media without the above-listed transcription factors. This (4-12 hours with, 1-3 days without) was repeated a number (1, 2, 3, 4, or more) of times and then the cells were cultures in mESC for two weeks.

non-iPS cells = assay: MEK inhibitor applied at late stage of reprogramming as selection: growth of non-iPS cells; assay type: cell-based, mouse; details: late stage of reprogramming (after Oct4-GFP activation)
From the text: (§1) Finally, we observed that the application of a specific small molecule inhibitor of MEK, PD0325901, to late stage of reprogramming (e.g. after Oct4-GFP activation) can serve as an excellent selection strategy for generating iPS cells. Due to the very low efficiency of reprogramming, iPS cells are typically selected out by utilizing reporter (e.g. Neo/Puro or GFP) that is under control of the regulatory elements of a pluripotency marker using genetically modified somatic cell lines, or manually picked out based on cell morphology. While the later method applicable to genetically unmodified cells is better suited for ultimate clinical application of iPS cells, it is a much more tedious and less reliable technique that typically requires picking and propagating over several passages many colonies, only a small fraction of which would become true iPS cells efficiently. This is partly because that large percentage of similarly looking colonies may be partially reprogrammed cells and/or simply transformed cells, which grow rapidly and may interfere with growth and reprogramming of iPS cells. Consequently, having an alternative selection strategy for genetically unmodified cells would be highly desirable.

iPS cells = assay: MEK inhibitor applied at late stage of reprogramming as selection: growth and stable reprogramming of iPS cells; assay type: cell-based, mouse; details: late stage of reprogramming (after Oct4-GFP activation)
From the text: as §1

Structure (SMILES): COC(=O)C1=C(C)NC(C)=C([N+](=O)[O-])C1c1ccccc1C(F)(F)F (stereo not shown) [BayK]
- proliferation of mES cells (cell number) (mES R1 cells): No significant difference; also recorded: does not lead to a change in proliferation
- SOX2 expression [1]: does not induce SOX2 expression
- reprogramming efficiency versus OK-transduced MEF control ([2]; compound alone, in the absence of BIX (data not shown)): did not increase reprogramming efficiency above OK-transduced MEF control
- effect on reprogramming of OK transduced MEFs in the second screen [2]: strongest effect in the screen aside from known DNA/histone modifiers
- reprogramming activity on OK-transduced MEFs [3]: no observable reprogramming activity

- cellular reprogramming (cellular reprogramming; at 3 μM): enhance cellular reprogramming
Structure (SMILES): C=C(c1ccc(C(=O)O)cc1)c1cc2c(cc1C)C(C)(C)CCC2(C)C [Bexarotene]

Structure (SMILES): Cc1c[nH]c(-c2cnc(NCCNc3ccc(C#N)cn3)nc2-c2ccc(Cl)cc2Cl)n1 [CHIR99021]
- efficiency and speed of development of pluripotent cells (Mouse fibroblasts): improved efficiency and speed of development of pluripotent cells

- cellular reprogramming (cellular reprogramming; at 5 μM): enhance cellular reprogramming
Structure (SMILES): CC(C)C[C@H](NC(=O)OCC1c2ccccc2-c2ccccc21)C(=O)O [Fmoc-Leu]

Structure (SMILES): CCN(CC)CCCCNc1ncc2cc(-c3cc(OC)cc(OC)c3)c(NC(=O)NC(C)(C)C)nc2n1 [PD173074]
- outcome in second synergist screen [2]: primary hits

Structure (SMILES): O=C(NOC[C@H](O)CO)c1ccc(F)c(F)c1Nc1ccc(I)cc1F [PD0325901]
- growth of non-iPS cells (non-iPS cells): inhibits growth of non-iPS cells
- growth and stable reprogramming of iPS cells (iPS cells): effectively promotes growth and stable reprogramming of iPS cells
- efficiency and speed of development of pluripotent cells (Mouse fibroblasts): improved efficiency and speed of development of pluripotent cells

Structure (SMILES): O=C(O)C(Cc1c[nH]c2ccccc12)N1C(=O)c2ccccc2C1=O (stereo not shown) [RG108]
- effect on reprogramming of OK transduced MEFs in the second screen [2]: enhanced reprogramming of OK transduced MEFs in the presence of BIX

Structure (SMILES): NC(=O)c1ccc(-c2nc(-c3ccc4c(c3)OCO4)c(-c3ccccn3)[nH]2)cc1 [SB431542]
- efficiency and speed of development of pluripotent cells (Mouse fibroblasts): improved efficiency and speed of development of pluripotent cells

Structure (SMILES): Cc1cc(Nc2ncc3c(n2)N(C)C(=O)N(c2cc(NC(=O)c4cccc(C(F)(F)F)c4)ccc2C)C3)n(C)n1 [pluripotin]
- outcome in second synergist screen [2]: primary hits

Structure (SMILES): c1nc2nc(Nc3ccc(N4CCOCC4)cc3)nc(NC3CCCCC3)c2[nH]1 [reversine]
- outcome in second synergist screen [2]: primary hits
